We go through five molecules from ChEMBL document CHEMBL2074124, “A transfected cell model for the renal toxin transporter, rOCT2” (Toxicol Sci, 1999).

Data set [1] addresses T1, Solute carrier family 22 member 2 (Rattus norvegicus, UniProt Q9R0W2).
T1 sequence (Q9R0W2 whole entry): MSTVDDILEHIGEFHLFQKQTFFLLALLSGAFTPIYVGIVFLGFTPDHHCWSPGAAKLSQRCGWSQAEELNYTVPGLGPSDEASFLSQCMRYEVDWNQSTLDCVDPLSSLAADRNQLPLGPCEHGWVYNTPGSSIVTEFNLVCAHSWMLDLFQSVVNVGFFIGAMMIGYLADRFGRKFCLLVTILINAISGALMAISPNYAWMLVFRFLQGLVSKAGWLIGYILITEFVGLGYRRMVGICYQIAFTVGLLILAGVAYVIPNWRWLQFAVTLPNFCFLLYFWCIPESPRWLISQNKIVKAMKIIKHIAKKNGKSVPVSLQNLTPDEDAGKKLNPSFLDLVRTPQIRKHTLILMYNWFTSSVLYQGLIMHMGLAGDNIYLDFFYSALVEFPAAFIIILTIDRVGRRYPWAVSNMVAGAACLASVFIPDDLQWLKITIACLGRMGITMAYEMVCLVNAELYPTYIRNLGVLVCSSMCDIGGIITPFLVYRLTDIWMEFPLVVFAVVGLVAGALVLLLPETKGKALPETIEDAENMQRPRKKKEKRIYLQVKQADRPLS
Nature of the data set: TP_TRANSPORTER: inhibition of TEA uptake (apical to cell) in OCT2-expressing NIH3T3 cells. The format is functional, cell-based.

The target in data set [2] is T1, Solute carrier family 22 member 2. Briefly: TP_TRANSPORTER: uptake (apical to cell) in OCT2-expressing NIH3T3 cells. The format is functional, cell-based. The following applies: mouse.
Substrate in data set [3]: CC[N+](CC)(CC)CC
Briefly: cells, lysate or membranes named.

Broadly, the Ki is a dissociation constant, usually derived from enzyme kinetics or from competition with a known ligand. Read a low Ki as a stronger hold on the target. In data set [1], `CN/C(=N/CCSCc1nc[nH]c1C)NC#N` [CIMETIDINE] displayed a Ki of 198 µM.

The molecule `CC[n+]1c(CC2C=C(C)N=C(c3ccccc3)N2C)ccc2ccccc21` (stereo not given) [Cyanine-863] had a Ki in data set [1] of 0.861 µM.

For `COc1cccc2c1C(=O)c1c(O)c3c(c(O)c1C2=O)C[C@@](O)(C(C)=O)C[C@@H]3O[C@H]1C[C@H](N)[C@H](O)[C@H](C)O1` [DAUNORUBICIN], the Activity result in data set [2] was “substrate [+]”.

On to `CC[C@]1(O)C[C@@H]2CN(CCc3c([nH]c4ccccc34)[C@@](C(=O)OC)(c3cc4c(cc3OC)N(C)[C@H]3[C@@](O)(C(=O)OC)[C@H](OC(C)=O)[C@]5(CC)C=CCN6CC[C@]43[C@@H]65)C2)C1` [VINBLASTINE], for which the Activity result in data set [2] is “substrate [+]”.

B1: Solute carrier family 22 member 2 (Rattus norvegicus) (protein)
chain: T1 sequence (Q9R0W2 whole entry)
In general, Km refers to the substrate concentration at which the rate is half of its maximum. B1: in data set [3], the Km is 141 µM.
